According to patent publication US11352340B2, “Pyridine and pyridimine compounds as PI3K-gamma inhibitors” (Incyte Corporation, priority 2016, dated 2022):
Counter-ions that a name gives are not always drawn. Like-named read-outs stand apart in the source and are kept apart here.

Key:
[1] = biological target: PI3Kγ (p110γ) Recombinant Human Protein (Homo sapiens (Human), UniProt P48736); experiment: PI3K-γ Scintillation Proximity Assay; type: biochemical; conditions: read-out: PI3K-gamma SPA IC50
PI3Kγ (p110γ) Recombinant Human Protein, sequence (P48736 whole entry): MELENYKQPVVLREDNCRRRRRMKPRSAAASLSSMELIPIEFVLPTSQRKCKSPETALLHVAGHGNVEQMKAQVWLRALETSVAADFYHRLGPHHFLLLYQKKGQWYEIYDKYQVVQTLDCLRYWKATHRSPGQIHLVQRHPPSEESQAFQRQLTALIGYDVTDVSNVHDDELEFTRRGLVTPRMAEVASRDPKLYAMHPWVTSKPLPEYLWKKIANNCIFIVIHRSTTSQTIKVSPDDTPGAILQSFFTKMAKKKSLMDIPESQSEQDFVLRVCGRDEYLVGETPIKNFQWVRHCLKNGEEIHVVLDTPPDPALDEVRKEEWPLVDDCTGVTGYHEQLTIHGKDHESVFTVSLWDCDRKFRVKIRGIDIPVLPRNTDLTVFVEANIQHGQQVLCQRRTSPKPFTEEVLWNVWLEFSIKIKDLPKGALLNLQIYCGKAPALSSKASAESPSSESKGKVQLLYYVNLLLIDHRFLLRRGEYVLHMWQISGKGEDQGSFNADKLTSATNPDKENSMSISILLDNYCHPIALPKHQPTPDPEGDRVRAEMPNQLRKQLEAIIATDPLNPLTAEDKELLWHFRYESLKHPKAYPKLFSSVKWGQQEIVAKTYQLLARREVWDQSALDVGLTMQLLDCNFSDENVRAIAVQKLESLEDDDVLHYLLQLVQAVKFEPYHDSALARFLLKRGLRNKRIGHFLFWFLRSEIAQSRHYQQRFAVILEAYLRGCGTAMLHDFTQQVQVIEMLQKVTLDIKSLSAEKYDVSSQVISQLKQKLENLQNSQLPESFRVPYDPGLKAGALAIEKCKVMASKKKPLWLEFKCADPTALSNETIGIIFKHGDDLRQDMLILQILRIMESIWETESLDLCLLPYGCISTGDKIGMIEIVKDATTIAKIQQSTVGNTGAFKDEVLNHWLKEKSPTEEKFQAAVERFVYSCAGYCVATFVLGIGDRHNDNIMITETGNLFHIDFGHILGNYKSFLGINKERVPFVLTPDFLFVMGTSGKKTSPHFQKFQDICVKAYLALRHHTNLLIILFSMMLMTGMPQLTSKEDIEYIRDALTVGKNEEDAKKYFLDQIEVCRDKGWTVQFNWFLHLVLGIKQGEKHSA
Summary of the method: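 Radiometric SPA: reaction at room temperature for 120 min using 2 μM ATP with [γ-33P]ATP tracer, 20 μM PIP2 substrate and 13 nM human PI3Kγ (MOPS pH 6.7, MgCl2, DTT, CHAPS; 2% DMSO). EDTA quench with WGA beads, scintillation count, and IC50 fit of percent-of-control activity.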

[2] = tested on: Phosphorylated Ribosomal Protein S6 (RPS6) in THP-1 cells; experiment: THP-1 RPS6 ELISA Assay; type: cell-based, Human; conditions: MCP-1 stimulated, phospho-RPS6 ELISA, read-out: THP p-RPS6 ELISA IC50
Summary of the method: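 Phospho-RPS6 in lysates measured by ELISA at 450 nm, corrected at 540 nm, after MCP-1 challenge (10 nM, 15 min) of THP-1 cells that were starved overnight and exposed to test compound for 2 h at 37° C, 2×10^5 cells/well. Curve fit of percent inhibition gives IC50.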

[3] = biological target: PI3Kδ (p110δ/p85α) Recombinant Human Protein (Homo sapiens (Human), UniProt O00329); experiment: PI3Kδ Scintillation Proximity Assay; type: biochemical; conditions: read-out: PI3K-delta SPA IC50
PI3Kδ (p110δ/p85α) Recombinant Human Protein, sequence (O00329 whole entry): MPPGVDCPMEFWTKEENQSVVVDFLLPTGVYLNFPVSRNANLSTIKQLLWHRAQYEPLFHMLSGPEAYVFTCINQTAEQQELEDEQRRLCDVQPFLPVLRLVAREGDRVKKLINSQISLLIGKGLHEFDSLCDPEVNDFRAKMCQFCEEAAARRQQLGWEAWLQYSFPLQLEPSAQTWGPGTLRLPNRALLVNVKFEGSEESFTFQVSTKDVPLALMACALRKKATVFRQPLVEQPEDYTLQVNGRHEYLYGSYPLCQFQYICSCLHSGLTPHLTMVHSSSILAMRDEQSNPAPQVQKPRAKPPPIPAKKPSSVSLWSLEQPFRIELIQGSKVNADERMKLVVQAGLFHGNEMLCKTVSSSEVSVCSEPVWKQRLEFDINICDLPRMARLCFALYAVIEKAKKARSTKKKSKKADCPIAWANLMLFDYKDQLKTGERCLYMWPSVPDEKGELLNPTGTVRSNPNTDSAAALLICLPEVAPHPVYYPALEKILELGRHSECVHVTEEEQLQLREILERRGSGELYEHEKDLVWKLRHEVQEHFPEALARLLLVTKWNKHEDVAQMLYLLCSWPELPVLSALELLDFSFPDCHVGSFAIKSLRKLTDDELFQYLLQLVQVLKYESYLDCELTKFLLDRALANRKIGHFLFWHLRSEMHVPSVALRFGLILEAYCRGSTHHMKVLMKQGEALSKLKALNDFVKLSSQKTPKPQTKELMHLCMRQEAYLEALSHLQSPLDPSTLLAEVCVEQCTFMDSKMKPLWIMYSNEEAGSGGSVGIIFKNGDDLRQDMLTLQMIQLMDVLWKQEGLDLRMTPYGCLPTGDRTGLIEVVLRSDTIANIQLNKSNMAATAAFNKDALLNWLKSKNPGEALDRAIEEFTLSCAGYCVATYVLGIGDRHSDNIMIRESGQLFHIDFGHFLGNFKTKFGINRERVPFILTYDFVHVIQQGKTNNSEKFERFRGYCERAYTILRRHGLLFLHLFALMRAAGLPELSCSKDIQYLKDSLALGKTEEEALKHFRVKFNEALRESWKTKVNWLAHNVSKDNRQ
PI3Kδ (p110δ/p85α) Recombinant Human Protein, sequence (P27986 whole entry partner): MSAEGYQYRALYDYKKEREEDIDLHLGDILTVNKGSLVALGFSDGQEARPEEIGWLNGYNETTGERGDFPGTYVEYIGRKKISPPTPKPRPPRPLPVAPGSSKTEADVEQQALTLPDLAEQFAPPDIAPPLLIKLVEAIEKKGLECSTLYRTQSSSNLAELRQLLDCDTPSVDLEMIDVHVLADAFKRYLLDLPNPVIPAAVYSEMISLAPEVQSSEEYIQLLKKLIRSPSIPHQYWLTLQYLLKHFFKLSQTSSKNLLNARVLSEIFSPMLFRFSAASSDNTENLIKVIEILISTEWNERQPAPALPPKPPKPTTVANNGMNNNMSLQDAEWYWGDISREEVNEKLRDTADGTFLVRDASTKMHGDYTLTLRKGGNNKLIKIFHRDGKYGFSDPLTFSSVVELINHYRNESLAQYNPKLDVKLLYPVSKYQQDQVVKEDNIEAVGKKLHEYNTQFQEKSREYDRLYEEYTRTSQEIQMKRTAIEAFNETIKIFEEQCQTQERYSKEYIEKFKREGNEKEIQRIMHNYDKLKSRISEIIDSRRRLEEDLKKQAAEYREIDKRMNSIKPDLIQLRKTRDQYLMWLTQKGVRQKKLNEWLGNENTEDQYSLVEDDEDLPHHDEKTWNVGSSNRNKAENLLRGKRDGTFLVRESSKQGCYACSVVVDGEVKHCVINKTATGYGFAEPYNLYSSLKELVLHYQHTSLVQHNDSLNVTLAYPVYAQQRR
Summary of the method: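 IC50 was fitted to percent solvent-control activity from SPA scintillation counts after WGA bead capture of 33P-labelled lipid product. Reaction: 120 min, room temperature, 3.4 nM p110δ/p85α, 20 μM PIP2, 2 μM ATP with tracer, MOPS pH 6.7 buffer containing MgCl2, DTT, CHAPS, 2% DMSO.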

Compound | IC50 [1] | IC50 ([2]; Homo sapiens) | IC50 [3] | IC50 [2]
Cc1[nH]c(-c2cc(-c3cncc(N4CCOCC4)c3)ccn2)nc1CO [Example 122, [5-Methyl-2-(5-morpholin-4-yl-3,4′-bipyridin-2′-yl)-1H-imidazol-4-yl]methanol] | ≤ 500 nM | 1000 to 5000 nM | ≤ 500 nM | –
COC(=O)c1nc(-c2cc(-c3cncc(N4CCOCC4)c3)ccn2)[nH]c1C [Example 125, Methyl 5-methyl-2-(5-morpholin-4-yl-3,4′-bipyridin-2′-yl)-1H-imidazole-4-carboxylate] | ≤ 100 nM | 300 to 1000 nM | ≤ 50 nM | –
O=C(Nc1cncc(-c2ccnc(-c3ncc(-c4ccccc4)[nH]3)c2)c1)C1CCCC1 [Example 138, N-(2′-(5-Phenyl-1H-imidazol-2-yl)-3,4′-bipyridin-5-yl)cyclopentanecarboxamide] | ≤ 500 nM | > 5000 nM | ≤ 100 nM | –
Cc1nc(-c2cc(-c3cncc(C(=O)NC(C)C)c3)ccn2)[nH]c1C [Example 157, 2′-(4,5-Dimethyl-1H-imidazol-2-yl)-N-isopropyl-3,4′-bipyridine-5-carboxamide trifluoroacetate salt] | ≤ 100 nM | 1000 to 5000 nM | ≤ 500 nM | –
CC(=O)N1CCN(C(=O)c2cncc(-c3ccnc(-c4nc(C)c(C)[nH]4)c3)c2)CC1 [Example 159, 1-(4-(2′-(4,5-Dimethyl-1H-imidazol-2-yl)-3,4′-bipyridine-5-carbonyl)piperazin-1-yl)ethanone trifluoroacetate salt] | ≤ 50 nM | 1000 to 5000 nM | ≤ 100 nM | –
Cc1nc(-c2cc(-c3cncc(C(=O)N4CC[C@@H](N(C)C)C4)c3)ccn2)[nH]c1C [Example 161, (R)-(2′-(4,5-Dimethyl-1H-imidazol-2-yl)-3,4′-bipyridin-5-yl)(3-(dimethylamino)pyrrolidin-1-yl)methanone trifluoroacetate salt] | ≤ 50 nM | ≤ 300 nM | ≤ 100 nM | –
Cc1nc(-c2cc(-c3cncc(C(=O)N4CC[C@@H](O)C4)c3)ccn2)[nH]c1C [Example 163, (R)-(2′-(4,5-Dimethyl-1H-imidazol-2-yl)-3,4′-bipyridin-hydroxypyrrolidin-1-yl)methanone trifluoroacetate salt] | ≤ 50 nM | – | ≤ 50 nM | ≤ 300 nM
Cc1nc(-c2cc(-c3cncc(C(=O)N4CCC5(CC4)COC5)c3)ccn2)[nH]c1C [Example 165, (2′-(4,5-Dimethyl-1H-imidazol-2-yl)-3,4′-bipyridin-5-yl)(2-oxa-7-azaspiro[3.5]nonan-7-yl)methanone trifluoroacetate salt] | ≤ 50 nM | ≤ 300 nM | ≤ 100 nM | –
Cc1nc(-c2cc(-c3cncc(C(=O)N4CCC(=O)C4)c3)ccn2)[nH]c1C [Example 168, 1-(2′-(4,5-Dimethyl-1H-imidazol-2-yl)-3,4′-bipyridine-5-carbonyl)pyrrolidin-3-one trifluoroacetate salt] | ≤ 50 nM | ≤ 300 nM | ≤ 50 nM | –
Cc1nc(-c2cc(-c3cncc(C(=O)N4C[C@H](CO)[C@@H](C)C4)c3)ccn2)[nH]c1C [Example 172, ((3R,4R)-1-{[2′-(4,5-Dimethyl-1H-imidazol-2-yl)-3,4′-bipyridin-5-yl]carbonyl}-4-methylpyrrolidin-3-yl)methanol trifluoroacetate salt] | ≤ 50 nM | 300 to 1000 nM | ≤ 50 nM | –
Cc1nc(-c2cc(-c3cncc(C(=O)N4CCC(F)(F)C4)c3)ccn2)[nH]c1C [Example 173, 5-[(3,3-Difluoropyrrolidin-1-yl)carbonyl]-2′-(4,5-dimethyl-1H-imidazol-2-yl)-3,4′-bipyridine trifluoroacetate salt] | ≤ 50 nM | ≤ 300 nM | ≤ 50 nM | –
Cc1nc(-c2cc(-c3cncc(C(=O)N4C5CCC4CC5)c3)ccn2)[nH]c1C [Example 179, 5-(7-Azabicyclo[2.2.1]hept-7-ylcarbonyl)-2′-(4,5-dimethyl-1H-imidazol-2-yl)-3,4′-bipyridine trifluoroacetate salt] | ≤ 50 nM | ≤ 300 nM | ≤ 100 nM | –

The remaining lines, values ahead:

IC50 [1] | IC50 ([2]; Homo sapiens) | IC50 [3] | IC50 [2] | Compound
≤ 50 nM | ≤ 300 nM | ≤ 50 nM | – | Cc1[nH]c(-c2cc(-c3cncc(S(C)(=O)=O)c3)ccn2)nc1C(F)F [Example 121, 2′-[4-(Difluoromethyl)-5-methyl-1H-imidazol-2-yl]-5-(methylsulfonyl)-3,4′-bipyridine Trifluoroacetate Salt]
≤ 50 nM | ≤ 300 nM | ≤ 50 nM | – | Cc1[nH]c(-c2cc(-c3cncc(N4CCOCC4)c3)ccn2)nc1CCO [Example 123, 2-[5-Methyl-2-(5-morpholin-4-yl-3,4′-bipyridin-2′-yl)-1H-imidazol-4-yl]ethanol]
≤ 50 nM | 1000 to 5000 nM | ≤ 50 nM | – | Nc1cncc(-c2ccnc(-c3ncc(-c4ccccc4)[nH]3)c2)c1 [Example 127, 2′-(5-Phenyl-1H-imidazol-2-yl)-3,4′-bipyridin-5-amine Trifluoroacetate Salt]
≤ 50 nM | 300 to 1000 nM | ≤ 50 nM | – | CCS(=O)(=O)Nc1cncc(-c2ccnc(-c3ncc(-c4ccccc4)[nH]3)c2)c1 [Example 130, N-[2′-(5-Phenyl-1H-imidazol-2-yl)-3,4′-bipyridin-5-yl]ethanesulfonamide Trifluoroacetate Salt]
≤ 50 nM | > 5000 nM | ≤ 50 nM | – | COCC(=O)Nc1cncc(-c2ccnc(-c3ncc(-c4ccccc4)[nH]3)c2)c1 [Example 131, 2-Methoxy-N-[2′-(5-phenyl-1H-imidazol-2-yl)-3,4′-bipyridin-5-yl]acetamide Trifluoroacetate Salt]
≤ 50 nM | > 5000 nM | ≤ 50 nM | – | c1ccc(-c2cnc(-c3cc(-c4cncc(NCC5CCOCC5)c4)ccn3)[nH]2)cc1 [Example 141, 2′-(5-Phenyl-1H-imidazol-2-yl)-N-(tetrahydro-2H-pyran-4-ylmethyl)-3,4′-bipyridin-5-amine Trifluoroacetate Salt]
≤ 50 nM | > 5000 nM | ≤ 50 nM | – | c1ccc(-c2cnc(-c3cc(-c4cncc(NC5CCOCC5)c4)ccn3)[nH]2)cc1 [Example 142, 2′-(5-Phenyl-1H-imidazol-2-yl)-N-(tetrahydro-2H-pyran-4-yl)-3,4′-bipyridin-5-amine trifluoroacetate salt]
≤ 50 nM | ≤ 300 nM | ≤ 50 nM | – | Cc1nc(-c2cc(-c3cncc(C(=O)N4CC[C@H](O)C4)c3)ccn2)[nH]c1C [Example 146, (S)-(2′-(4,5-Dimethyl-1H-imidazol-2-yl)-3,4′-bipyridin-5-yl)(3-hydroxypyrrolidin-1-yl)methanone]
≤ 50 nM | ≤ 300 nM | ≤ 50 nM | – | Cc1nc(-c2cc(-c3cncc(C(=O)N4CCCC4)c3)ccn2)[nH]c1C [Example 151, (2′-(4,5-Dimethyl-1H-imidazol-2-yl)-3,4′-bipyridin-5-yl)(pyrrolidin-1-yl)methanone]
≤ 50 nM | 300 to 1000 nM | ≤ 50 nM | – | Cc1nc(-c2cc(-c3cncc(C(=O)N4CC(O)C4)c3)ccn2)[nH]c1C [Example 152, (2′-(4,5-Dimethyl-1H-imidazol-2-yl)-3,4′-bipyridin-5-yl)(3-hydroxyazetidin-1-yl)methanone trifluoroacetate salt]
≤ 50 nM | ≤ 300 nM | ≤ 50 nM | – | Cc1nc(-c2cc(-c3cncc(C(=O)N4CC(C#N)C4)c3)ccn2)[nH]c1C [Example 153, 1-(2′-(4,5-Dimethyl-1H-imidazol-2-yl)-3,4′-bipyridine-5-carbonyl)azetidine-3-carbonitrile trifluoroacetate salt]
≤ 50 nM | ≤ 300 nM | ≤ 50 nM | – | Cc1nc(-c2cc(-c3cncc(C(=O)N4CC[C@@H](F)C4)c3)ccn2)[nH]c1C [Example 155, (R)-(2′-(4,5-Dimethyl-1H-imidazol-2-yl)-3,4′-bipyridin-5-yl)(3-fluoropyrrolidin-1-yl)methanone trifluoroacetate salt]
≤ 50 nM | 1000 to 5000 nM | ≤ 50 nM | – | Cc1nc(-c2cc(-c3cncc(C(=O)N4CCC5(CCOCC5)CC4)c3)ccn2)[nH]c1C [Example 156, (2′-(4,5-Dimethyl-1H-imidazol-2-yl)-3,4′-bipyridin-5-yl)(3-oxa-9-azaspiro[5.5]undecan-9-yl)methanone trifluoroacetate salt]
≤ 50 nM | 1000 to 5000 nM | ≤ 100 nM | – | Cc1nc(-c2cc(-c3cncc(C(=O)N4CCN(C5CCN(C)CC5)CC4)c3)ccn2)[nH]c1C [Example 158, (2′-(4,5-Dimethyl-1H-imidazol-2-yl)-3,4′-bipyridin-5-yl)(4-(1-methylpiperidin-4-yl)piperazin-1-yl)methanone]
≤ 50 nM | 1000 to 5000 nM | ≤ 500 nM | – | Cc1nc(-c2cc(-c3cncc(C(=O)NC4CCOCC4)c3)ccn2)[nH]c1C [Example 160, 2′-(4,5-Dimethyl-1H-imidazol-2-yl)-N-(tetrahydro-2H-pyran-4-yl)-3,4′-bipyridine-5-carboxamide trifluoroacetate salt]
